{"source": "patent US20170209403A1", "about": "“METHOD FOR REGULATING ALDEHYDE DEHYDROGENASE 1” (National Cheng Kung University, priority 2016, published 2017)", "key": {"[1]": {"system": "A2780-High and CP70-High cells", "assay": "Transwell migration assay", "assay_type": "cell-based, human", "conditions": "10 μM ATRA for 28 days", "method": "(§1) Cells (1×10^5) were seeded on Transwell filters with a pore size of 8 μm (Corning Costar) and were allowed to migrate toward medium containing 10% FBS. After 8 h, the cells on the upper surface of the Transwell membrane were removed with a cotton swab, and the migrated cells (on the underside of the Transwell) were fixed and stained with methanol and Giemsa staining dye (Merck, Darmstadt, Germany). The invasion assay was conducted in the same manner as the migration assay, except that Matrigel (BD Biosciences) was used, the incubation time differed (24 h) and the number of cells added to the upper chamber was 2×10^5 cells. Cell migration and invasion were quantified by counting the migrated cells in six random fields under a light microscope."}, "[2]": {"system": "ALDH1, FoxM1 and Notch-1 expression in ES2 cells", "assay": "Western blotting of ALDH1, FoxM1 and Notch1", "assay_type": "cell-based, human", "conditions": "ES2-High cells; ATRA"}, "[3]": {"system": "A2780 and CP70 ovarian cancer cells", "assay": "Sphere formation assay", "assay_type": "cell-based, human", "conditions": "A2780-High and CP70-High cells; 10 μM ATRA for 28 days", "method": "FIGS. 1A-1F show ALDH1 regulates stemness and tumourigenic ability in ovarian cancer cells. […] A total of 1×10^3 A2780 (upper panel) and CP70 (lower panel) cells were seeded into a 96-well plate to evaluate the cells' sphere formation ability (scale bar=200 μm). DEAB was used to inhibit the reaction of ALDH1 and also served as a negative control. […] The β-actin was used as a protein loading control. The histogram represents the relative fold change of protein expression (right panel). […] A2780-ALDH1 (upper panel) and CP70-shALDH1 (lower panel) cells were seeded into 96-well plates to evaluate their sphere formation ability (scale bar=200 μm).\nFIGS. 2A-2D show ALDH1 regulates stemness and tumourigenic ability through the FoxM1 and Notch1 signalling pathways. […] Representative images show spheres generated from single-cell cultures after 10 days. The lower panel depicts the relative sphere formation ratio (scale bar=200 μm). […] V: vector.\n(§2) Standard sphere formation assays were performed according to Zhang et al. (Zhang, S. et al. Cancer Res., 68, 4311-4320.) with minor modification. The cells (1×10^3) were resuspended in serum-free DMEM/F12 medium supplemented with 5 μg/ml insulin (Sigma), 20 ng/ml human recombinant epidermal growth factor (EGF; Invitrogen, Life Technologies, Carlsbad, Calif.) and 10 ng/ml basic fibroblast growth factor (bFGF; Invitrogen) in ultra-low attachment plates (Corning Costar, Corning, N.Y.). Spheres that arose within 1-2 weeks were counted. Colony diameters >50 μm were counted as a single-positive colony. The middle field was chosen for counting of spheres, and two fields for each plate were counted under a dissecting microscope. For all sphere formation experiments, a minimum of eight wells was run for each condition. All data represent the mean ±SEM of three separate experiments and at least 24 different fields.\n(§3) An Aldefluor® kit (StemCell Technologies) was used to assess ALDH activity in the ovarian cancer cell lines, as previously described (Saw, Y. T. et al. (2012) BMC Cancer, 12, 329.). In brief, 1×10^6 cells were incubated in Aldefluor® assay buffer containing a 1.5 μM ALDH substrate for 30 min at 37° C. Each sample was treated with 50 μM of DEAB, and used as a negative control. Prior to analysis, cells were stained with […] of propidium iodide to evaluate their viability. The fluorescence intensity of the stained cells was analysed using a FACSAria cell sorter Flow Cytometer (BD Biosciences). The reaction with DEAB was used to define the baseline for the assay. The ALDH activity of a sample was determined to be ‘high’ or ‘low’ based on the fluorescence intensity beyond or below the threshold defined by the reaction with DEAB. The cells having high or low ALDH activity are marked “-High” or “-Low” hereafter."}, "ALDH1 [4]": {"system": "ALDH1", "assay": "Immunohistochemical staining for ALDH1 in tumour tissue sections"}, "[5]": {"system": "A2780 and CP70 ovarian cancer cells", "assay": "MTT cytotoxicity assay (proliferation, doubling time)", "assay_type": "cell-based, human", "conditions": "A2780-High and CP70-High cells; ATRA treatment", "method": "(§4) The cell lines were cultured in a humidified incubator containing 95% air and 5% CO2 at 37° C. in 96-well flat-bottomed microtiter plates. After 72 h of incubation, the in vitro cytotoxic effects of treatments were determined by MTT assay (at 570 nm)."}, "CP70-High cells": {"system": "CP70-High cells", "assay": "Tumourigenesis of ATRA-pretreated cells in mouse xenograft", "assay_type": "in vivo, NOD/SCID mice", "method": "(§5) All animal studies adhered to protocols approved by the Institutional Animal Care and Use Committee of National Cheng Kung University Medical Centre. The mouse xenograft model was prepared as previously reported (Molthoff, C. F. et al. (1991) Int. J. Cancer, 47, 72-79). Briefly, cells were implanted in 50% Matrigel (BD Biosciences, San Jose, Calif.) and injected subcutaneously into the left flanks of 4- to 6-week-old female NOD/SCID (NOD.CB17-PRKDC (SCID)) mice. We observed mice for tumour formation every other day after cell inoculation and measured tumour size when it became measurable. Tumour size was measured using Vernier callipers by external measurement of the length and width, and the tumour volume was computed from the formula for an ellipsoid body […]. When the tumours reached ˜2000 mm^3 at approximately 28 days, the mice were sacrificed. […] All tumours were excised, fixed in 10% neutral buffered formalin, and embedded in paraffin for histological assessment or shock-frozen in liquid N2 and stored at −80° C. for further analysis.\nWe then inoculated 1×10^4 ATRA-pretreated A2780-High or CP70-High cells into mice. […] However, these findings were not observed in ES2-Low cells (FIG. 4A and FIG. 4B)."}, "ALDH1 [6]": {"system": "ALDH1", "assay": "Aldefluor assay of ALDH1 enzyme activity / ALDH1-High cell fraction", "assay_type": "cell-based, human", "method": "as §3"}, "CP70-High tumour": {"system": "CP70-High tumour", "assay": "Antitumour efficacy of ATRA in mouse xenografts", "assay_type": "in vivo, NOD/SCID mice", "conditions": "1×10^6 cells s.c.; ATRA 0.05 or 0.1 mg into the peritoneal cavity three times per week; at 22 days after tumour cell inoculation", "method": "(§6) Cell suspensions of 1×10^6 A2780-High or CP70-High cells were inoculated subcutaneously into mice.\nas §5, §6"}, "A2780-High tumour": {"system": "A2780-High tumour", "assay": "Antitumour efficacy of ATRA in mouse xenografts", "assay_type": "in vivo, NOD/SCID mice", "method": "as §6, §5, §6"}, "[7]": {"system": "A2780-High and CP70-High cells", "assay": "Transwell invasion assay", "assay_type": "cell-based, human", "conditions": "10 μM ATRA for 28 days", "method": "as §1"}, "ES2-High cells [8]": {"system": "ES2-High cells", "assay": "Transwell migration assay", "assay_type": "cell-based, human", "conditions": "ATRA", "method": "(§7) Right panel: relative fold changes of ALDH1 and FoxM1 expression compared with controls. […] Sphere formation in ES2-High cells after treatment with different concentrations of Thiostrepton or DAPT, and the relative fold changes in expression are shown (scale bar=200 μm).\nas §1"}, "A2780-High cells": {"system": "A2780-High cells", "assay": "Tumourigenesis of ATRA-pretreated cells in mouse xenograft", "assay_type": "in vivo, NOD/SCID mice", "quoted_text": "Briefly, cells were implanted in 50% Matrigel (BD Biosciences, San Jose, Calif.) and injected subcutaneously into the left flanks of 4- to 6-week-old female NOD/SCID (NOD.CB17-PRKDC (SCID)) mice. We observed mice for tumour formation every other day after cell inoculation and measured tumour size when it became measurable. Tumour size was measured using Vernier callipers by external measurement of the length and width, and the tumour volume was computed from the formula for an ellipsoid body [volume=(length/2)×(width)]. When the tumours reached ˜2000 mm^3 at approximately 28 days, the mice were sacrificed. […] All tumours were excised, fixed in 10% neutral buffered formalin, and embedded in paraffin for histological assessment or shock-frozen in liquid N2 and stored at −80° C. for further analysis."}, "[9]": {"system": "ES2 cells (ES2-High, ES2-Low)", "assay": "Sphere formation assay", "assay_type": "cell-based, human", "conditions": "ES2-High cells; ATRA (10 μM)", "method": "as §7, §2, §3"}, "[10]": {"system": "ALDH1, FoxM1, Notch1, Oct-4 and Nanog expression in A2780 and CP70 cells", "assay": "Western blotting of ALDH1, FoxM1, Notch1 and CSC markers", "assay_type": "cell-based, human", "conditions": "A2780-High and CP70-High cells; 10 μM ATRA for 28 days"}, "ES2-High cells [11]": {"system": "ES2-High cells", "assay": "MTT cytotoxicity assay (proliferation, doubling time)", "assay_type": "cell-based, human", "conditions": "ATRA", "method": "as §7, §4"}, "[12]": {"conditions": "1×10^4 cells pretreated with ATRA (10 μM) for 28 days, inoculated into mice"}, "[13]": {"conditions": "CP70-High cells pretreated with ATRA, 1 × 10^4 cells injected"}}}
{"smiles": "CC1=C(/C=C/C(C)=C/C=C/C(C)=C/C(=O)O)C(C)(C)CCC1", "note": "[ATRA, all-trans retinoic acid]", "values": [{"measurement": "cell migration ability", "setting": "[1]", "result": "significantly reduced"}, {"measurement": "ALDH1 expression", "setting": "[2]", "result": "inhibited"}, {"measurement": "FoxM1 expression", "setting": "[2]", "result": "inhibited"}, {"measurement": "Notch1 expression", "setting": "[2]", "result": "inhibited"}, {"measurement": "sphere formation ability", "setting": "[3]", "result": "significantly reduced"}, {"measurement": "ALDH1 expression in tumour cells from tissue sections", "setting": "ALDH1 [4]; ATRA-treated mice compared with control mice", "result": "downregulated"}, {"measurement": "ALDH1 expression in tumour cells (immunostaining)", "setting": "ALDH1 [4]; tumours from ATRA-pretreated ALDH1-High cells", "result": "reduced ALDH1 expression"}, {"measurement": "proliferation (cell doubling time)", "setting": "[5]", "result": "did not affect proliferation"}, {"measurement": "tumour size", "setting": "CP70-High cells; [12]", "result": "significant reduction of tumour size"}, {"measurement": "Number of tumours/number of injections", "setting": "CP70-High cells; [13]", "result": "4/5"}, {"measurement": "average tumour volume", "setting": "CP70-High cells; [13]", "result": "(545) mm^3"}, {"measurement": "Tumour-initiating cell frequency", "setting": "CP70-High cells; CP70-High cells pretreated with ATRA, calculated with ELDA software", "result": "1/6213"}, {"measurement": "ALDH1 activity", "setting": "ALDH1 [6]; A2780-High and CP70-High cells, 10 μM ATRA for 28 days", "result": "significantly reduced"}, {"measurement": "proportion of ALDH1-High cells", "setting": "ALDH1 [6]; A2780-Low and CP70-Low cells, ATRA (10 μM) or paclitaxel (60 ng/ml) for 4 days", "result": "decreased the proportion of ALDH1-High ovarian cancer cells"}, {"measurement": "tumour growth", "setting": "CP70-High tumour", "result": "significantly suppressed"}, {"measurement": "tumour growth", "setting": "A2780-High tumour; 1×10^6 cells s.c., ATRA 0.05 or 0.1 mg into the peritoneal cavity three times per week", "result": "inhibited A2780-High tumour growth in a dose-dependent manner"}, {"measurement": "effective dose for mice", "setting": "A2780-High tumour; mouse xenografts, administered doses 0.05 and 0.1 mg", "result": "at least 0.05 mg"}, {"measurement": "cell invasion ability", "setting": "[7]", "result": "significantly reduced"}, {"measurement": "cell migration ability", "setting": "ES2-High cells [8]", "result": "inhibited"}, {"measurement": "tumour formation ability", "setting": "A2780-High cells; [12]", "result": "almost completely abrogated"}, {"measurement": "Number of tumours/number of injections", "setting": "A2780-High cells; A2780-High cells pretreated with ATRA, 1 × 10^4 cells injected", "result": "4/9"}, {"measurement": "sphere formation ability", "setting": "[9]", "result": "inhibited"}, {"measurement": "ALDH1 expression", "setting": "[10]", "result": "significantly reduced"}, {"measurement": "FoxM1 expression", "setting": "[10]", "result": "significantly reduced"}, {"measurement": "Notch1 expression", "setting": "[10]", "result": "significantly reduced"}, {"measurement": "proliferation (cell doubling time)", "setting": "ES2-High cells [11]", "result": "did not affect proliferation"}]}
